# Literature values in patent US9415078B2 (priority 2011, dated 2016).
# Where “and” joins values, the source holds several entries; their conditions need not be identical. Equal values may be shown once. Read-outs that look alike come from different tables or passages of the source.
# System: non squamous and squamous carcinoma of lung
# Conditions: pemetrexed-based therapy, two comparisons
compound,measurement,setting,value
Nc1nc2[nH]cc(CCc3ccc(C(=O)N[C@@H](CCC(=O)O)C(=O)O)cc3)c2c(=O)[nH]1 [pemetrexed],HR for survival versus the comparators,Non squamous patients,0.78 and 0.84
same,HR for survival versus the comparators,squamous patients,1.56 and 1.23
